Data set [1] has as its system C57BL/6J mice. Briefly: Mouse head twitch response (HTR). It is filed as in vivo. Particulars: for duration of HT expression: at 10-30 mg/kg. As for the experimental part:
(§1) The effect of different doses of representative compounds of Formula I was evaluated on head-twitch response (HTR) and other behavioural responses indicative of serotonin syndrome as behavior-based models of psychedelic activity.
(§2) Male, C57BL/6J mice (body weight range 20-30 g) were dosed with the appropriate dose of test article, and following a 1-minute pre-treatment time, placed in individual observation chambers. Animals were visually assessed for the incidence head twitches continuously over a 1 hr period. Head twitches were defined as a rapid jerk of the head which was not elicited by an external tactile stimulus (Come and Pickering, Psychopharmacologia, 1967, 11(1): 65-78). Each head twitch was individually counted by a trained observer, and the data expressed as the mean±SEM of 6-10 mice per group. Mice were used in a single experiment only.

The subject of data set [2] is C57BL/6J mice. Briefly: Behavioural responses indicative of serotonin syndrome and motor activity, observed in the mouse head twitch study. It is filed as in vivo. How it is done:
as §1, §2

Data set [3] has as its target human 5-HT2A (h5-HT2A) receptor (Homo sapiens, UniProt P28223). Briefly: FLIPR calcium assay, human 5-HT2A, agonist mode.
Data set [4] addresses T1, human 5-HT2A receptor (Homo sapiens, UniProt P28223). Briefly: biochemical.
The target of data set [5] is T1, human 5-HT2A receptor. As to conditions: read-out: h5-HT2A IC50; competition with [3H]-ketanserin, cell membranes.

SMILES strings stand for the structures. Read-outs that look alike come from different tables or passages of the source. Bounds are passed on as bounds.

From patent US20240383850A1, “INDOLE DERIVATIVES AS SEROTONERGIC AGENTS USEFUL FOR THE TREATMENT OF DISORDERS RELATED THERETO” (Mindset Pharma Inc., priority 2021, published 2024) come the findings set out here.

Broadly, the ED50 is the dose at which the effect has come halfway, by size or by number of responders. High values mean a need for a large dose, low ones an effect at a small dose. One may read the EC50 as the concentration needed to bring the measured effect to its halfway point. What is called IC50 is the midpoint of a concentration-inhibition curve.

Chain of human 5-HT2A (h5-HT2A) receptor (P28223 whole entry): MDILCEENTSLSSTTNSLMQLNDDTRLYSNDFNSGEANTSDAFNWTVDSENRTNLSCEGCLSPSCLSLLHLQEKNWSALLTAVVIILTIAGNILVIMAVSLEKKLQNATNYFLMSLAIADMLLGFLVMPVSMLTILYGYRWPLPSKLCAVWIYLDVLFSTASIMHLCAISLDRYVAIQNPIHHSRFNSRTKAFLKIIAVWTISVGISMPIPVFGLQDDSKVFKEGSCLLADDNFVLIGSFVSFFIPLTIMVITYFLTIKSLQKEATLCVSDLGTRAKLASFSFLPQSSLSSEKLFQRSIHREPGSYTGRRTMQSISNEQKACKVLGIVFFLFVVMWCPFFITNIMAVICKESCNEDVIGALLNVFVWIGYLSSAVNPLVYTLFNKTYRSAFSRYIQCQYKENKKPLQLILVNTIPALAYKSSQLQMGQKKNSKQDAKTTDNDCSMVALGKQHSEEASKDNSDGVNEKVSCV
T1 sequence (P28223 whole entry): as above

Take `[2H]C([2H])(c1c[nH]c2ccc(OC)cc12)[C@H]1CCCN1C(=O)CCCCCCC/C=C\C/C=C\CCCCC` [(R)—I-51]: the ED50 with C57BL/6J mice [1] (Mus musculus, male C57BL/6J mice, SC, head twitches counted over 1 hr) was determined as 2.8 mg/kg. For the same compound, the “head twitch response expression” value in the data set on C57BL/6J mice [1] (mice, 1-60 mg/kg SC, compared to 5-MeO DMT) is reported as “elicited a robust head twitch response expression”. In addition, the “duration of HT expression” value in the data set on C57BL/6J mice [1] (mice, SC) was in the range of 0 to 30 min. The motor activity result in the data set with C57BL/6J mice [2] (1-30 mg/kg, not formally measured) is given as “did not reduce motor activity”. In addition, in the data set on C57BL/6J mice [2] (up to 60 mg/kg SC), the “signs of 5-HT syndrome (whole body twitches, FPT, Straub tail)” value is recorded as “did not induce signs of 5-HT syndrome”.

For `COc1ccc2[nH]cc(CCN(C)C)c2c1` [Compound 5-MeO-DMT, 5-MeO-DMT, reference compound], the “ED50 head twitch response” value in the data set with C57BL/6J mice [1] (male C57BL/6J mice, SC, head twitches counted over 1 hr) is 8 mg/kg. Further, in the data set with C57BL/6J mice [1] (mice, SC), the “duration of HT expression” value lay in the range of 0 to 20 min.

Regarding `CCCCC/C=C\C/C=C\CCCCCCCC(=O)N(C)CCc1c[nH]c2ccccc12` [Compound I-1, (9Z,12Z)—N-(2-(1H-Indol-3-yl)ethyl)-N-methyloctadeca-9,12-dienamide], the concentration giving a half-maximal response (EC50) in data set [3] is more than 30 µM. In addition, the IC50 against human 5-HT2A receptor [4] is 10 to 30 µM.

`CCCCC/C=C\C/C=C\CCCCCCCC(=O)N(C)CCc1c[nH]c2ccc(OC)cc12` [Compound I-21, (9Z,12Z)—N-(2-(5-Methoxy-1H-indol-3-yl)ethyl)-N-methyloctadeca-9,12-dienamide]: the EC50 in data set [3] was more than 30 µM. At human 5-HT2A receptor [4], this compound had a half-maximal inhibitory concentration (IC50) of 10 to 30 µM.

`CCCCC/C=C\C/C=C\CCCCCCCC(=O)N1CCC[C@@H]1Cc1c[nH]c2ccccc12` [Compound I-46, (9Z,12Z)-1-((R)-2-((1H-Indol-3-yl)methyl)pyrrolidin-1-yl)octadeca-9,12-dien-1-one]: in data set [3], the concentration for a half-maximal effect (EC50) is more than 30 µM. The compound also returned an IC50 at human 5-HT2A receptor [4] of more than 30 µM.

With `CCCCC/C=C\C/C=C\CCCCCCCC(=O)N1CCC[C@@H]1Cc1c[nH]c2ccc(OC)cc12` [Compound I-55, (9Z,12Z)-1-((R)-2-((5-Methoxy-1H-indol-3-yl)methyl)pyrrolidin-1-yl)octadeca-9,12-dien-1-one], in data set [3], the EC50 is more than 30 µM. At human 5-HT2A receptor [4], the half-inhibitory concentration (IC50) is more than 30 µM.

On to `CCCCC/C=C\C/C=C\CCCCCCCC(=O)N1CCC(c2c[nH]c3ccc(OC)cc23)C1` (stereo not shown) [Compound I-81, (9Z,12Z)-1-(3-(5-Methoxy-1H-indol-3-yl)pyrrolidin-1-yl)octadeca-9,12-dien-1-one], for which, in data set [3], the concentration for a half-maximal effect (EC50) was more than 30 µM. This compound returned an IC50 on human 5-HT2A receptor [4] of more than 30 µM.

Consider `CCCCC/C=C\C/C=C\CCCCCCCC(=O)N1CCC(c2c[nH]c3ccccc23)C1` (stereo not shown) [Compound I-84, (9Z,12Z)-1-(3-(1H-Indol-3-yl)pyrrolidin-1-yl)octadeca-9,12-dien-1-one], for which the EC50 in data set [3] is more than 30 µM. In addition, the IC50 against human 5-HT2A receptor [4] fell in the range of 10 to 30 µM.

Take `CCCCC/C=C\C/C=C\CCCCCCCC(=O)N1CCC(c2c[nH]c3ccccc23)CC1` [Compound I-87, (9Z,12Z)-1-(4-(1H-Indol-3-yl)piperidin-1-yl)octadeca-9,12-dien-1-one]: the EC50 in data set [3] was more than 30 µM. The same compound had an IC50 against human 5-HT2A receptor [4] of 10 to 30 µM.

In the case of `CCCCC/C=C\C/C=C\CCCCCCCC(=O)N1CCC(c2c[nH]c3ccc(OC)cc23)CC1` [Compound I-88, (9Z,12Z)-1-(4-(5-Methoxy-1H-indol-3-yl)piperidin-1-yl)octadeca-9,12-dien-1-one], the EC50 in data set [3] is more than 30 µM. At human 5-HT2A receptor [4], this compound yielded an IC50 of 10 to 30 µM.

On to `CN(C)CCc1c[nH]c2ccccc12` [DMT], for which the EC50 in data set [3] (read-out: h5-HT2A EC50, FLIPR calcium assay, agonist mode) was less than 10 µM. Further, the IC50 on human 5-HT2A receptor [5] was less than 10 µM.
